ChEMBL document CHEMBL1133881, “Antimalarial halorosellinic acid from the marine fungus Halorosellinia oceanica” (Bioorg Med Chem Lett, 2001)
In brackets after ≈: the same amount, converted by molar mass. Activity calls are given as the source filed them. No cut-off for these calls is given here.

Legend:
[1] = test system: Mycobacterium tuberculosis; assay: Antimycobacterial activity was assessed against Mycobacterium tuberculosis H37Ra using theMicroplate Alamar Blue Assay (MABA); NA means inactive at 200 ug/mL; format: functional, organism-based
KB [2] = assay: Cytotoxic activity against human epidermoid carcinoma cells of KB cell lines in mouth; format: functional, cell-based
BC1 cell line [3] = assay: Cytotoxic activity against human breast cancer cells of BC-1 cell lines; format: functional, cell-based
Plasmodium falciparum [4] = assay: Antimalarial activity against multidrug-resistant Plasmodium falciparum K1; format: functional, organism-based
Plasmodium falciparum [5] = assay: Antimalarial activity against multidrug-resistant Plasmodium falciparum K1; Not active at 20 ug/mL; format: functional, organism-based
BC1 cell line [6] = assay: Cytotoxic activity against human breast cancer cells of BC-1 cell lines; NA means inactive at 20 ug/mL; format: functional, cell-based
[7] = test system: Mycobacterium tuberculosis; assay: Antimycobacterial activity was assessed against Mycobacterium tuberculosis H37Ra using theMicroplate Alamar Blue Assay (MABA); format: functional
KB [8] = assay: Cytotoxic activity against human epidermoid carcinoma cells of KB cell lines in mouth; NA means inactive at 20 ug/mL; format: functional, cell-based

Structure (SMILES) | MIC [1] | IC50 (KB [2]) [µg/mL] | IC50 (BC1 cell line [3]) [µg/mL] | IC50 (Plasmodium falciparum [4]) [µg/mL] | IC50 (Plasmodium falciparum [5]) | IC50 (BC1 cell line [6]) | MIC [7] [µg/mL] | IC50 (KB [8])
C[C@H]1Cc2c(C(=O)O)ccc(O)c2C(=O)O1 | inactive | 3 (≈ 13.5 µM) | 3 (≈ 13.5 µM) | 4 (≈ 18 µM) |  |  |  | 
CCCCC/C=C(/C(=O)O)C(C)C(=O)O (centres undefined) | inactive | 13 (≈ 60.7 µM) | 5 (≈ 23.3 µM) |  | Not Active |  |  | 
C/C(=C\C1OC(C)(C)O[C@@H]1[C@H](C)C1=CC[C@@]2(C)C[C@@H]3[C@H](C)CC[C@@H]3/C(C(=O)O)=C\C[C@H]12)C(=O)O (some centres undefined) |  |  |  | 19 (≈ 40.2 µM) |  | Not Active | 200 (≈ 423 µM) | Not Active
CC(=O)O[C@@H]1/C=C/[C@@](C)(O)C(=O)[C@@H](C)C/C=C/[C@H]2[C@@H]3O[C@]3(C)[C@@H](C)[C@H]3[C@H](Cc4ccccc4)NC(=O)[C@@]312 [CYTOCHALASIN Q] | inactive | 3 (≈ 5.91 µM) | 1 (≈ 1.97 µM) | 17 (≈ 33.5 µM) |  |  |  | 
CCCCC/C=C(/C(=O)O)C(C)C(=O)OC (centres undefined) | inactive |  |  |  | Not Active | Not Active |  | Not Active
C/C(=C\[C@H](O)[C@H](O)[C@H](C)C1=CC[C@@]2(C)C[C@@H]3[C@H](C)CC[C@@H]3/C(C(=O)O)=C\C[C@H]12)C(=O)O |  |  |  | 13 (≈ 30.1 µM) |  | Not Active | 200 (≈ 462 µM) | Not Active
